Data as given in patent US9346815B2, “5-chloro-2-difluoromethoxyphenyl pyrazolopyrimidine compounds, compositions and methods of use thereof” (Genentech, Inc., priority 2014, dated 2016).
Where a name gives a salt, the structure may show the parent alone.

Key:
[1] = tested on: JAK1-dependent STAT6 phosphorylation downstream of IL-13 stimulation in BEAS-2B human bronchial epithelial cells; test: JAK1 pathway assay in BEAS-2B cells (IL-13-pSTAT6, MSD); assay type: cell-based; conditions: read-out: IL13-pSTAT6 EC50 (uM)_BEAS-2B
Protocol: JAK1 Pathway Assay in Cell Lines was Carried Out as Follows:
Inhibitor potency (EC50) was determined in cell-based assays designed to measure JAK1 dependent STAT phosphorylation.
In one assay approach, TF-1 human erythroleukemia cells obtained from the American Type Culture Collection (ATCC; Manassas, Va.) were used to measure JAK1-dependent STAT6 phosphorylation downstream of IL-13 stimulation. Prior to use in the assays, TF-1 cells were starved of GM-CSF overnight in OptiMEM medium (Life Technologies, Grand Island, N.Y.) supplemented with 0.5% charcoal/dextran stripped fetal bovine serum (FBS), 0.1 mM non-essential amino acids (NEAA), and 1 mM sodium pyruvate. The assays were run in 384-well plates in serum-free OptiMEM medium using 300,000 cells per well. In a second assay approach, BEAS-2B human bronchial epithelial cells obtained from ATCC were plated at 100,000 cells per well of a 96-well plate one day prior to the experiment. The BEAS-2B assay was run in complete growth medium (bronchial epithelial basal medium plus bulletkit; Lonza; Basel, Switzerland).
Test compounds were serially diluted 1:2 in DMSO and then diluted 1:50 in medium just before use. Diluted compounds were added to the cells, for a final DMSO concentration of 0.2%, and incubated for 30 min (for the TF-1 assay) or 1 hr (for the BEAS-2B assay) at 37° C. Then, cells were stimulated with human recombinant cytokine at their respective EC90 concentrations, as previously determined for each individual lot. Cells were stimulated with IL-13 (R&D Systems, Minneapolis, Minn.) for 15 min at 37° C. The TF-1 cell reactions were stopped by the direct addition of 10× lysis buffer (Cell Signaling Technologies, Danvers, Mass.), whereas the BEAS-2B cell incubations were halted by the removal of medium and addition of 1× lysis buffer. The resultant samples were frozen in the plates at −80° C. Compound mediated inhibition of STAT6 phosphorylation was measured in the cell lysates using MesoScale Discovery (MSD) technology (Gaithersburg, Md.).

[2] = target: isolated recombinant JAK1 kinase domain (Homo sapiens (Human), UniProt P23458); test: JAK1 enzyme assay (Caliper LabChip, peptide phosphorylation); assay type: biochemical; conditions: isolated recombinant JAK1 kinase domain, 25 μM ATP
[3] = target: isolated recombinant JAK2 kinase domain (Homo sapiens (Human), UniProt O60674); test: JAK2 enzyme assay (Caliper LabChip, peptide phosphorylation); assay type: biochemical; conditions: 25 μM ATP
isolated recombinant JAK2 kinase domain, sequence (O60674 849-1124): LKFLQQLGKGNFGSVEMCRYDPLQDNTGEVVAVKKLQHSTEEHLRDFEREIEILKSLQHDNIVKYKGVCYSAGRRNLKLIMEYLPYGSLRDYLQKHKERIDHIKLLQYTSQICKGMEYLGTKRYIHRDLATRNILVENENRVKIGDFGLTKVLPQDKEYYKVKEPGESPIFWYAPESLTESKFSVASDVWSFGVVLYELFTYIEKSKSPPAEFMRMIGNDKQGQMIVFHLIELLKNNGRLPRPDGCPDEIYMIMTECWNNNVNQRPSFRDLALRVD

isolated recombinant JAK1 kinase domain, sequence (P23458 875-1153): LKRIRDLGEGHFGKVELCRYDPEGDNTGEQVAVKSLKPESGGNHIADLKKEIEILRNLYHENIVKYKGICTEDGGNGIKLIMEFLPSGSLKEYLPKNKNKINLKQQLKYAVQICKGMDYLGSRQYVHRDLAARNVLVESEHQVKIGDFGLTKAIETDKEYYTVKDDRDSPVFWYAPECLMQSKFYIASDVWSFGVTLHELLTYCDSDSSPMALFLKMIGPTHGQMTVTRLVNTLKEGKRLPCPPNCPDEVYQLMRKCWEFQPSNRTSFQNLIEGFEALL

Row | SMILES | EC50 [1] | Ki [2] | Ki [3]
1 | C[C@H]1COCCN1C1CCN(C(=O)Cn2cc(NC(=O)c3cnn4cccnc34)c(-c3cc(Cl)ccc3OC(F)F)n2)CC1 [Example 451, N-(3-(5-chloro-2-(difluoromethoxy)phenyl)-1-(2-(4-((S)-3-methyl-morpholino)piperidin-1-yl)-2-oxoethyl)-1H-pyrazol-4-yl)pyrazolo[1,5-a]pyrimidine-3-carboxamide] | 0.0201 µM | 0.45 nM | 1.56 nM
2 | CN(C)C(=O)CN1CCN(C(=O)Cn2cc(NC(=O)c3cnn4cccnc34)c(-c3cc(Cl)ccc3OC(F)F)n2)CC1 [Example 325, N-[3-[5-chloro-2-(difluoromethoxy)phenyl]-1-(2-[4-[(dimethylcarbamoyl)methyl]piperazin-1-yl]-2-oxoethyl)-1H-pyrazol-4-yl]pyrazolo[1,5-a]pyrimidine-3-carboxamide] | 0.0651 µM | 0.41 nM | 1.03 nM
3 | O=C(Nc1cn(CC(=O)N2C[C@@H]3CCN[C@@H]3C2)nc1-c1cc(Cl)ccc1OC(F)F)c1cnn2cccnc12 [Example 444, N-(3-(5-chloro-2-(difluoromethoxy)phenyl)-1-(2-((3aS,6aS)-hexahydropyrrolo[3,4-b]pyrrol-5(1H)-yl)-2-oxoethyl)-1H-pyrazol-4-yl)pyrazolo[1,5-a]pyrimidine-3-carboxamide] | 0.054 µM | 0.76 nM | 0.89 nM
4 | O=C(Nc1cn(CCNCc2ccncc2)nc1-c1cc(Cl)ccc1OC(F)F)c1cnn2cccnc12 [Example 315, N-[3-[5-chloro-2-(difluoromethoxy)phenyl]-1-[2-[(pyridin-4-ylmethyl)amino]ethyl]-1H-pyrazol-4-yl]pyrazolo[1,5-a]pyrimidine-3-carboxamide] | 0.0823 µM | 0.72 nM | 0.4 nM
5 | O=C(Nc1cn(CCN2CCNCC2=O)nc1-c1cc(Cl)ccc1OC(F)F)c1cnn2cccnc12 [Example 417, N-(3-(5-chloro-2-(difluoromethoxy)phenyl)-1-(2-(2-oxopiperazin-1-yl)ethyl)-1H-pyrazol-4-yl)pyrazolo[1,5-a]pyrimidine-3-carboxamide] | 0.0934 µM | 2.91 nM | 1.37 nM
6 | O=C(O)CN1CCN(C(=O)Cn2cc(NC(=O)c3cnn4cccnc34)c(-c3cc(Cl)ccc3OC(F)F)n2)CC1 [Example 310, 2-[4-(2-[3-[5-chloro-2-(difluoromethoxy)phenyl]-4-[pyrazolo[1,5-a]pyrimidine-3-amido]-1H-pyrazol-1-yl]acetyl)piperazin-1-yl]acetic acid] | 8.83 µM | 0.52 nM | 0.59 nM
7 | CSc1ccc(CNCCn2cc(NC(=O)c3cnn4cccnc34)c(-c3cc(Cl)ccc3OC(F)F)n2)cc1 [Example 346, N-[3-[5-chloro-2-(difluoromethoxy)phenyl]-1-[2-([[4-(methylsulfanyl)phenyl]methyl]amino)ethyl]-1H-pyrazol-4-yl]pyrazolo[1,5-a]pyrimidine-3-carboxamide formate] | 0.115 µM | 0.37 nM | 0.31 nM
8 | CN[C@@H](C)Cn1cc(NC(=O)c2cnn3cccnc23)c(-c2cc(Cl)ccc2OC(F)F)n1 [Example 369, N-[3-[5-chloro-2-(difluoromethoxy)phenyl]-1-[(2S)-2-(methylamino)propyl]-1H-pyrazol-4-yl]pyrazolo[1,5-a]pyrimidine-3-carboxamide] | 0.0093 µM | 1.13 nM | 1.25 nM
9 | O=C(Nc1cn(CC(=O)N2CCC(N3C[C@@H]4C[C@H]3CO4)CC2)nc1-c1cc(Cl)ccc1OC(F)F)c1cnn2cccnc12 [Example 447, N-(1-(2-(4-((1S,4S)-5-oxa-2-aza-bicyclo[2.2.1]heptan-2-yl)piperidin-1-yl)-2-oxoethyl)-3-(5-chloro-2-(difluoromethoxy)phenyl)-1H-pyrazol-4-yl)pyrazolo[1,5-a]pyrimidine-3-carboxamide] | 0.0161 µM | 0.49 nM | 1.25 nM
10 | O=C(Nc1cn(CCNCc2cccnc2)nc1-c1cc(Cl)ccc1OC(F)F)c1cnn2cccnc12 [Example 368, N-[3-[5-chloro-2-(difluoromethoxy)phenyl]-1-[2-[(pyridin-3-ylmethyl)amino]ethyl]-1H-pyrazol-4-yl]pyrazolo[1,5-a]pyrimidine-3-carboxamide] | 0.056 µM | – | 0.51 nM
11 | O=C1CCC(CN2CCN(C(=O)Cn3cc(NC(=O)c4cnn5cccnc45)c(-c4cc(Cl)ccc4OC(F)F)n3)CC2)O1 (stereo not shown) [Example 382, N-[3-[5-chloro-2-(difluoromethoxy)phenyl]-1-(2-oxo-2-[4-[(5-oxooxolan-2-yl)methyl]piperazin-1-yl]ethyl)-1H-pyrazol-4-yl]pyrazolo[1,5-a]pyrimidine-3-carboxamide] | 0.0257 µM | 0.34 nM | 0.75 nM
12 | CN(CC(C)(C)C#N)C1CCN(C(=O)Cn2cc(NC(=O)c3cnn4cccnc34)c(-c3cc(Cl)ccc3OC(F)F)n2)CC1 [Example 465, N-(3-(5-chloro-2-(difluoromethoxy)phenyl)-1-(2-(4-((2-cyano-2-methylpropyl)(methyl)amino)piperidin-1-yl)-2-oxoethyl)-1H-pyrazol-4-yl)pyrazolo[1,5-a]pyrimidine-3-carboxamide] | 0.0114 µM | 0.24 nM | 0.56 nM
13 | C[C@@H]1COCCN1C1CCN(C(=O)Cn2cc(NC(=O)c3cnn4cccnc34)c(-c3cc(Cl)ccc3OC(F)F)n2)CC1 [Example 449, N-(3-(5-chloro-2-(difluoromethoxy)phenyl)-1-(2-(4-((R)-3-methyl-morpholino)piperidin-1-yl)-2-oxoethyl)-1H-pyrazol-4-yl)pyrazolo[1,5-a]pyrimidine-3-carboxamide] | 0.0136 µM | 0.38 nM | 1.1 nM
14 | C[C@H](NCCn1cc(NC(=O)c2cnn3cccnc23)c(-c2cc(Cl)ccc2OC(F)F)n1)c1ccccc1 [Example 385, N-[3-[5-chloro-2-(difluoromethoxy)phenyl]-1-(2-[[(1S)-1-phenylethyl]amino]ethyl)-1H-pyrazol-4-yl]pyrazolo[1,5-a]pyrimidine-3-carboxamide] | 0.163 µM | – | 0.3 nM
15 | O=C(Nc1cn(CC(=O)N2CCN(CC3CC3)CC2)nc1-c1cc(Cl)ccc1OC(F)F)c1cnn2cccnc12 [Example 374, N-[3-[5-chloro-2-(difluoromethoxy)phenyl]-1-[2-[4-(cyclopropylmethyl)piperazin-1-yl]-2-oxoethyl]-1H-pyrazol-4-yl]pyrazolo[1,5-a]pyrimidine-3-carboxamide] | 0.0295 µM | 0.45 nM | 0.88 nM
16 | O=C(Nc1cn(CC(=O)N2CCC(C(=O)O)CC2)nc1-c1cc(Cl)ccc1OC(F)F)c1cnn2cccnc12 [Example 342, 1-(2-[3-[5-chloro-2-(difluoromethoxy)phenyl]-4-[pyrazolo[1,5-a]pyrimidine-3-amido]-1H-pyrazol-1-yl]acetyl)piperidine-4-carboxylic acid] | 1.81 µM | 0.19 nM | 0.2 nM
17 | CN1CCN(C2CCN(C(=O)Cn3cc(NC(=O)c4cnn5cccnc45)c(-c4cc(Cl)ccc4OC(F)F)n3)CC2)C(=O)C1 [Example 448, N-(3-(5-chloro-2-(difluoromethoxy)phenyl)-1-(2-(4-(4-methyl-2-oxopiperazin-1-yl)piperidin-1-yl)-2-oxoethyl)-1H-pyrazol-4-yl)pyrazolo[1,5-a]pyrimidine-3-carboxamide] | 0.0425 µM | 0.36 nM | 0.88 nM
18 | C[C@@H](NCCn1cc(NC(=O)c2cnn3cccnc23)c(-c2cc(Cl)ccc2OC(F)F)n1)c1ccccc1 [Example 384, N-[3-[5-chloro-2-(difluoromethoxy)phenyl]-1-(2-[[(1R)-1-phenylethyl]amino]ethyl)-1H-pyrazol-4-yl]pyrazolo[1,5-a]pyrimidine-3-carboxamide] | 0.139 µM | – | 0.23 nM
19 | O=C(CN1CCCCC1)Cn1cc(NC(=O)c2cnn3cccnc23)c(-c2cc(Cl)ccc2OC(F)F)n1 [Example 418, N-(3-(5-chloro-2-(difluoromethoxy)phenyl)-1-(2-oxo-3-(piperidin-1-yl)propyl)-1H-pyrazol-4-yl)pyrazolo[1,5-a]pyrimidine-3-carboxamide] | 0.0609 µM | – | 0.8 nM
20 | N#CC1CCN(C2CCN(C(=O)Cn3cc(NC(=O)c4cnn5cccnc45)c(-c4cc(Cl)ccc4OC(F)F)n3)CC2)C1 (stereo not shown) [Example 409, N-(3-(5-chloro-2-(difluoromethoxy)phenyl)-1-(2-(4-(3-cyanopyrrolidin-1-yl)piperidin-1-yl)-2-oxoethyl)-1H-pyrazol-4-yl)pyrazolo[1,5-a]pyrimidine-3-carboxamide] | 0.0196 µM | – | 0.89 nM
